≈ marks a conversion by molar mass, not a printed value. Where two headings read alike, the source gives them in different places.
Columns and labels:
[1] = tested on: Human cervical cancer cells Hela; assay: Cell proliferation assay (CCK-8); assay type: cell-based; details: Homo sapiens, 72 h
Excerpt: (§1) CCK-8 method: The CCK-8 method is a highly sensitive, non-radioactive colorimetric assay for the determination of the number of viable cells in cell proliferation or cytotoxicity assays. The orange formazan dye produced by the bioreduction of CCK-8 by intracellular dehydrogenase is soluble in the cell culture medium, and the amount of formazan dye produced is proportional to the number of living cells. The kit used in this method is the tetrazolium salt-WST-8 (2-(2-methoxy-4-nitrophenyl)-3-(4-nitrophenyl)-5-(2,4-disulfophenyl)-2H-tetrazolium monosodium salt) developed by Dojindo Chemical Research Institute (Dojindo), which is capable of being reduced to a water-soluble formazan dye in the presence of the electronic carrier 1-Methoxy PMS.
(§2) Human cervical cancer cells Hela, pancreatic cancer cells PANC-1, esophageal cancer cells Eca-109, human leukemia cells K562, human lung cancer cells A549, human liver cancer cells HepG2, human gastric cancer cells MKN-45, human breast cancer cells MCF7 were cultured in DMEM medium containing 10% FBS (fetal bovine serum), 100 U/mL penicillin and 100 μg/ml streptomycin. Hepatocellular carcinoma cells Bel-7402 were cultured in RPMI-1640 medium containing 10% FBS (fetal bovine serum), 100 U/ml penicillin and 100 μg/ml streptomycin. All cells were placed in a cell culture incubator at 37° C. with 5% CO2. Cells fluid was changed every 3-5 days, and after 80% cell fusion, trypsin digestion and passaging were performed to keep the cells in good logarithmic growth phase.
(§3) All the samples to be tested were dissolved in DMSO.
(§4) Cells in logarithmic growth phase were inoculated in 96-well plates with 5000 cells/well respectively, and after 24 h of incubation, samples were added (final concentrations as shown in the table), and biplicate wells were set up for each sample. The amount of solvent of DMSO was not higher than 2‰. After 72 h, 10 μL of CCK-8 solution was added to each well and incubated for 1.5˜3 h at 37° C. The OD value at 450 nm was measured on an plate reader. Inhibition rate (%)=(1−[(OD450 dosed well−OD450 blank well)/(OD450 control well−OD450 blank well)])×100%
(§5) The fitted IC50 values were calculated using the log (inhibitor) vs. response—Variable slop analysis method in GraphPad Prism software.

[2] = tested on: human liver cancer cells HepG2; assay: Cell proliferation assay (CCK-8); assay type: cell-based; details: Homo sapiens, HepG2, 72 h
Excerpt: as §1, §2, §3, §4, §5

[3] = tested on: human breast cancer cells MCF7; assay: Cell proliferation assay (CCK-8); assay type: cell-based; details: Homo sapiens, MCF7, 72 h
Excerpt: as §1, §2, §3, §4, §5

[4] = tested on: human leukemia cells K562; assay: Cell proliferation assay (CCK-8); assay type: cell-based; details: Homo sapiens, K562, 72 h
Excerpt: as §1, §2, §3, §4, §5

[5] = tested on: human gastric cancer cells MKN-45; assay: Cell proliferation assay (CCK-8); assay type: cell-based; details: Homo sapiens, MKN-45, 72 h
Excerpt: as §1, §2, §3, §4, §5

[6] = tested on: human lung cancer cells A549; assay: Cell proliferation assay (CCK-8); assay type: cell-based; details: Homo sapiens, A549, 72 h
Excerpt: as §1, §2, §3, §4, §5

[7] = tested on: pancreatic cancer cells PANC-1; assay: Cell proliferation assay (CCK-8); assay type: cell-based, human; details: Homo sapiens, PANC-1, 72 h
Excerpt: as §1, §2, §3, §4, §5

[8] = tested on: esophageal cancer cells Eca-109; assay: Cell proliferation assay (CCK-8); assay type: cell-based, human; details: Homo sapiens, Eca-109, 72 h
Excerpt: as §1, §2, §3, §4, §5

[9] = Solubility test (shake 37° C., 24 h, HPLC); assay type: physicochemical; details: thermodynamic from solid, x ± s
Description: The term “solubility” refers to the mass of solute dissolved when a solid substance reaches saturation state in 100 g solvent at a certain temperature. Solubility test refer to the following references: ZHU Shang-bin, et al. Preparation, characterization, and physicochemical properties of arbutin phospholipid complex[J]. Chinese Traditional and Herbal Drugs. 2020, 1-10.
Methods: Excess BFA and the compounds disclosed herein were added to 10 mL of three solvents, methanol, acetone and 5% DMSO+95% H2O, respectively, and shaken on a shaker at 37° C. at 100 r/min for 24 h. After 24 h, the samples were centrifuged at 15 000 r/min for 15 min to remove the undissolved compounds. The supernatant was filtered using a 0.45 μm membrane filter. The supernatant was appropriately diluted with methanol and contents of the compounds were determined by HPLC method to calculate the solubility.

[10] = aqueous with cosolvent or surfactant or cyclodextrin, 5% DMSO + 95% H2O, n = 3, read-out: Solubility, 5% DMSO + 95% H2O
[11] = organic solvent or mixture, acetone, n = 3, read-out: Solubility, Acetone
[12] = organic solvent or mixture, methanol, n = 3, read-out: Solubility, Methanol

| Compound | IC50 [1] | IC50 [2] | IC50 [3] | IC50 [4] | IC50 [5] | IC50 [6] | IC50 [7] | IC50 [8] | solubility at 24 h [9, 10] | solubility at 24 h [9, 11] | solubility at 24 h [9, 12] |
| --- | --- | --- | --- | --- | --- | --- | --- | --- | --- | --- | --- |
| COc1cccc2c1C(=O)c1c(O)c3c(c(O)c1C2=O)C[C@@](O)(C(=O)CO)C[C@@H]3O[C@H]1C[C@H](N)[C@H](O)[C@H](C)O1 [Adriamycin, reference compound] | 100 to 1000 nM | > 10000 nM | 1000 to 10000 nM | 1000 to 10000 nM | 100 to 1000 nM | 100 to 1000 nM | < 100 nM | 100 to 1000 nM |  |  |  |
| C[C@H]1CCC/C=C/[C@@H]2C[C@H](OC(=O)OCc3ccccn3)C[C@H]2[C@H](O)/C=C/C(=O)O1 [Compound 2, BFA-7-(pyridine-2-ylmethyl)carbonate] | < 100 nM | 100 to 1000 nM | 100 to 1000 nM | 100 to 1000 nM | 100 to 1000 nM | 100 to 1000 nM | 100 to 1000 nM | 100 to 1000 nM | 2.48 ± 1.55 mg/mL | 69.4 ± 2.23 mg/mL (≈ 167 mM) | 73.3 ± 3.52 mg/mL (≈ 176 mM) |
| C[C@H]1CCC/C=C/[C@@H]2C[C@H](OC(=O)OCc3ccncc3)C[C@H]2[C@H](O)/C=C/C(=O)O1 [Compound 3, BFA-7-(pyridine-4-ylmethyl)carbonate] | 100 to 1000 nM | 100 to 1000 nM | < 100 nM | 100 to 1000 nM | < 100 nM | 100 to 1000 nM | 100 to 1000 nM | 100 to 1000 nM | 2.65 ± 1.6 mg/mL | 69.6 ± 1.74 mg/mL (≈ 168 mM) | 70.3 ± 4.35 mg/mL (≈ 169 mM) |
| C[C@H]1CCC/C=C/[C@@H]2C[C@H](OC(=O)OCc3cncc(F)c3)C[C@H]2[C@H](O)/C=C/C(=O)O1 [Compound 4, BFA-7-(5-fluoro-pyridine-3-ylmethyl)carbonate] | < 100 nM | 100 to 1000 nM | 100 to 1000 nM | 100 to 1000 nM | 100 to 1000 nM | 100 to 1000 nM | < 100 nM | 100 to 1000 nM | 2.72 ± 0.33 mg/mL | 63.8 ± 3.53 mg/mL (≈ 147 mM) | 69.4 ± 3.51 mg/mL (≈ 160 mM) |
| C[C@H]1CCC/C=C/[C@@H]2C[C@H](OC(=O)OCc3ccc(N)nc3)C[C@H]2[C@H](O)/C=C/C(=O)O1 [Compound 5] | 100 to 1000 nM | 100 to 1000 nM | 100 to 1000 nM | 100 to 1000 nM | < 100 nM | 100 to 1000 nM | 100 to 1000 nM | < 100 nM |  |  |  |
| Cc1ccc(COC(=O)O[C@@H]2C[C@H]3[C@H](O)/C=C/C(=O)O[C@@H](C)CCC/C=C/[C@@H]3C2)cn1 [Compound 7] | 100 to 1000 nM | 100 to 1000 nM | 100 to 1000 nM | 100 to 1000 nM | 100 to 1000 nM | 100 to 1000 nM | 100 to 1000 nM | 100 to 1000 nM |  |  |  |
| C[C@H]1CCC/C=C/[C@@H]2C[C@H](OC(=O)OCc3ccc(N4CCCCC4)nc3)C[C@H]2[C@H](O)/C=C/C(=O)O1 [Compound 8] | 1000 to 10000 nM | 100 to 1000 nM | 100 to 1000 nM | 100 to 1000 nM | 1000 to 10000 nM | 100 to 1000 nM | 100 to 1000 nM | 100 to 1000 nM |  |  |  |

Source: US12522590B2, “Brefeldin a derivatives, preparation method and use thereof” (OCEAN UNIVERSITY OF CHINA, priority 2019, dated 2026)
